Measurements as given in US9139546B2, “Tri-aryl/heteroaromatic cannabinoids and use thereof” (priority 2007, dated 2015).
Where two headings read alike, the source gives them in different places.

Legend:
NF-κB = NF-κB SEAP reporter assay in TNF-α treated A549 cells; format: cell-based; conditions: Homo sapiens, read-out: NF-κB Reduction; for inhibition at 0.01 µM: 10 nM compound
Experimental: (§1) Human lung adenocarcinoma cell line A549 (alveolar type II epithelial-like) cells (ATCC, Manassas, Va.) were maintained in growth media consisting of DMEM supplemented with 10% heat-inactivated fetal calf serum, 2 mM L-glutamine, 100 U/ml penicillin, and 100 μg/ml streptomycin.
The plasmid pNF-κB-SEAP-NPT was kindly provided by Dr. Y. S. Kim of the Seoul National University. This plasmid contains a secreted alkaline phosphatase (SEAP) reporter gene coupled with the κB response element. Upon activation, NF-κB translocates to the nucleus and binds to the κB response element causing transcriptional activation. This activation drives production of the SEAP reporter, which is secreted into the cell culture supernatant where it can be measured. The neomycin phosphotransferase (NPT) region of the plasmid provides resistance to the antibiotic G-418.
A549 cells were stably transfected with pNF-κB-SEAP-NPT using GeneJammer Transfection Reagent (Stratagene, La Jolla, Calif.) per manufacturer's protocol. G-418 (500 μg/ml) was added 24 hrs after transfection to select for stable transfection of NF-κB. Resistant colonies were selected and maintained in growth media supplemented with 500 μg/ml G-418.
Previous experiments have shown A549 cells respond to the pro-inflammatory cytokine TNF-α by activation of the pro-inflammatory transcription factor, NF-κB. This effect is dose dependent with the maximum effect seen at 10 ng/mL TNF-α. Compounds with anti-inflammatory activity can be used to inhibit this activation of NF-κB.
One day prior to treatment, transfected cells were seeded in 24 well culture plates at 6×10^4 cells/well in 1 mL of DMEM containing 1% FCS. On the day of treatment, media was aspirated. Following PBS wash, 1 mL of media containing 1% FCS, 10 ng/mL TNF-α, and varying concentrations of test compounds was added. Cell culture supernatant was collected at 18 hours. SEAP production was measured in 50 μL of supernatant using the Great EscAPe™ chemiluminescence kit (Clontech, Mountain View, Calif.). Briefly, samples were incubated at 65° C. for 30 minutes to inactivate endogenous alkaline phosphate. Following a 5-minute equilibration with assay buffer, chemiluminescent substrate and enhancer was added. Chemiluminescence was measured after 10 minutes. Higher levels of chemiluminescence result from increased SEAP production and correspond to NF-κB activity. Compounds capable of inhibiting NF-κB activation due to TNF-α are determined by a reduction in chemiluminescence values when cells are treated with TNF-α and test compound versus cells treated with TNF-α alone.

human CB1 receptor = human CB1 receptor (Homo sapiens (Human), UniProt P21554); assay: Receptor binding assay, CB1 ([3H]CP 55,940 displacement); conditions: as repeated in the anti-inflammatory table; read-out: CB-1 Ki
Chain of human CB1 receptor (P21554 whole entry): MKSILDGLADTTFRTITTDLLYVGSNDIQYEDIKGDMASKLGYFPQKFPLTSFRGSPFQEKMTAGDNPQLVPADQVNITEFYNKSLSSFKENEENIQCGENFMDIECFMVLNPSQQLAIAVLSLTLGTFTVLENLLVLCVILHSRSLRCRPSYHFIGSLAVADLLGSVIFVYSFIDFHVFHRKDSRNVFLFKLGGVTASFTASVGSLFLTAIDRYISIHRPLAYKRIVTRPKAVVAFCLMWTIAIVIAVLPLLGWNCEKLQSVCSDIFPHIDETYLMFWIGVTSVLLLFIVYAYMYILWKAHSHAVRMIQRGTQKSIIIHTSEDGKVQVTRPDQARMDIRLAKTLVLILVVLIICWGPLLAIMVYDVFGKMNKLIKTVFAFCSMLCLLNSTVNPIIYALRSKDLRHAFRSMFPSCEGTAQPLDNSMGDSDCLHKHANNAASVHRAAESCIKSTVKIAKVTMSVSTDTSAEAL
Experimental: (§2) The assays were carried out in 96 well plates obtained from Millipore, Inc. fitted with glass fiber filters (hydrophilic, GFC filters) having a pore size of 1.2μ. The filters were soaked with 0.05% polyethyleneimine solution and washed 5× with deionized water prior to carrying out the assays. The filtrations were carried out on a 96 well vacuum manifold (Millipore Inc.), the filters punched out with a pipette tip directly into scintillation vials at the end of the experiment and vials filled with 5 ml scintillation cocktail Ecolite (+) (Fisher Scientific). Counting was carried out on a Beckmann Scintillation Counter model LS6500. Drug solutions were prepared in DMSO and the radioligand was dissolved in ethanol.
(§3) 50 mM TRIS-HCl, 5 mM MgCl2, 2.5 mM EDTA, 0.5 mg/ml fatty acid free bovine serum albumin, pH 7.4.
(§4) The membranes were filtered and the filters washed 7× with 0.2 ml ice-cold incubation buffer and allowed to air dry under vacuum.
(§5) Final data are presented as Ki±S.E.M. of n≧3 experiments.

CXCL-8 = CXCL-8 level in supernatant of TNF-α treated A549 cells (multiplex bead immunoassay); format: cell-based, human; conditions: A549, 10 ng/mL TNF-α, 18 hours
Experimental: as §1
(§6) One day prior to treatment, A549 cells were seeded in 24 well culture plates at 6×10^4 cells/well in 1 mL of DMEM containing 1% FCS. On the day of treatment, media was aspirated. Following PBS wash, 1 mL of media containing 1% FCS, 10 ng/mL TNF-α, and varying concentrations of test compounds was added. Samples were collected at 18 hours and immediately transferred to −80° C. until the day of analysis.
(§7) Levels of IL-6 and CXCL-8 were measured in cell culture supernatant using the Multiplex Bead Immunoassay Kit (Biosource, Camarillo, Calif.) paired with the Luminex® 200™ System. Standard solutions were prepared by serial dilution in a 50% media, 50% buffer solution so that they were in the same matrix as the samples. Standards and samples were mixed with a solution containing beads coated with capture antibodies specific for IL-6 and CXCL-8. Each capture antibody is bound to a specific bead population with a known internal fluorescence. The Luminex system can differentiate between internal fluorescence of beads allowing detection of multiple analytes in the same well. Following overnight incubation to allow complexation of protein with capture antibodies, wells were washed and beads resuspended in assay buffer. Biotinylated reporter antibodies specific for IL-6 and CXCL-8 were added and incubated for 1.5 hours. Unbound antibodies were removed by washing, and Streptavidin-Phycoerythrin (PE) was added and incubated 30 minutes. Streptavidin binds to biotin on the reporter antibodies. Unbound reagents were removed and samples were analyzed by the Luminex system. This system utilizes a flow cytometry system and lasers capable of exciting the internal dyes of the beads and PE. The machine separates signals from beads with different internal fluorescence and measures fluorescence intensity from PE bound to these beads through protein-antibody interactions. This fluorescence intensity is reported as the median of 100 beads per cytokine in each well. Concentrations were interpolated by fitting fluorescence intensity from unknowns to the standard curves.
(§8) Cells treated with the pro-inflammatory cytokine TNF-α increase production of IL-6 and CXCL-8 when compared to cells not treated with TNF-α. Cells treated with anti-inflammatory compounds block the inflammatory effect of TNF-α and produce IL-6 and CXCL-8 levels similar to cells that are not treated with TNF-α.

human CB2 receptor = human CB2 receptor (Homo sapiens (Human), UniProt P34972); assay: Receptor binding assay, CB2 ([3H]CP 55,940 displacement); conditions: for Ki: as repeated in the anti-inflammatory table, read-out: CB-2 Ki; for CB1/CB2: ratio of Ki CB-1 to Ki CB-2
Experimental: as §2, §3, §4, §5

IL-6 = IL-6 level in supernatant of TNF-α treated A549 cells (multiplex bead immunoassay); format: cell-based, human; conditions: A549, 10 ng/mL TNF-α, 18 hours
Experimental: as §1, §6, §7, §8

[1] = system: DMS-135 lung cancer cells; assay: Anti-cancer activity, WST-8 cell viability, DMS-135; format: cell-based; conditions: Homo sapiens
Experimental: (§9) A representative group of compounds (shown below) was tested for anti-cancer activity against human lung (DMS-135 and H69AR), prostate (DU-145), colorectal (HCT-15), and pancreatic (BxPC-3) cancer cell lines using the methodology described below, providing results shown in Table 3.
(§10) Human cancer cells DU-145, DMS-135, H69AR, HCT-15, and BxPC-3 (American Type Culture Collection, ATCC) were cultured in supplemented media according to the recommendations of the supplier. Cells lines were plated in 96-well flat-bottom plates at 70% confluency in a 100 μl total volume of supplemented media as indicated, and incubated overnight at 37° C. to allow for adherence. The cultures were inoculated with escalating amounts of drug and cell death was analyzed at 18 hours, using the BioTek Synergy 2 Multidetection Microplate Reader. The percentage of viable cells present in the culture at each time point was calculated by comparing the absorbance value at 450 nm from the WST-8 assay (Pojindo Molecular Technologies) for each condition with untreated control cells.

[2] = system: DU-145 prostate cancer cells; assay: Anti-cancer activity, WST-8 cell viability, DU-145; format: cell-based; conditions: Homo sapiens
Experimental: as §9, §10

H69AR lung cancer cells = assay: Anti-cancer activity, WST-8 cell viability, H69AR; format: cell-based; conditions: Homo sapiens, 18 h, read-out: H69AR lung EC50 (μM)
Experimental: as §9, §10

[3] = system: BxPC-3 pancreatic cancer cells; assay: Anti-cancer activity, WST-8 cell viability, BxPC-3; format: cell-based; conditions: Homo sapiens
Experimental: as §9, §10

[4] = system: HCT-15 colorectal cancer cells; assay: Anti-cancer activity, WST-8 cell viability, HCT-15; format: cell-based; conditions: Homo sapiens
Experimental: as §9, §10

[5] = 18 h, read-out: DMS-135 lung EC50 (μM)
[6] = DU-145, 18 h, read-out: DU-145 prostate EC50 (μM)
[7] = HCT-15, 18 h, read-out: HCT-15 colorectal EC50 (μM)

COc1cc(C(O)c2cccs2)cc(OC)c1-c1cc(Cl)cc(Cl)c1 (stereo not drawn) [Compound 16, (3′,5′-dichloro-2,6-dimethoxybiphenyl-4-yl)(thiophen-2-yl)methanol]
inhibition at 4 µM (NF-κB; 4 μM compound, A549, 10 ng/mL TNF-α, 18 hours): 45% | Ki (human CB1 receptor): > 1000 nM | CXCL-8 Reduction (CXCL-8; 4 μM compound): 80% | Ki (human CB2 receptor): 0.27 nM | CB1/CB2 (human CB2 receptor): 3700 | IL-6 Reduction (IL-6; 4 μM compound): 90%

Cc1cccc(-c2ccc(C(=O)c3ccccc3)cc2O)c1 [Compound 25, (2-hydroxy-3′-methylbiphenyl-4-yl)(phenyl)methanone]
inhibition at 0.01 µM (NF-κB; A549, 10 ng/mL TNF-α, 18 hours): 15% | Ki (human CB1 receptor): > 1000 nM | Ki (human CB2 receptor): 454 nM | CB1/CB2 (human CB2 receptor): 2.21

CC(C)(c1ccccc1)c1cc(O)c(-c2cc(Cl)cc(Cl)c2)c(O)c1 [Compound 41, 3′,5′-dichloro-4-(2-phenylpropan-2-yl)biphenyl-2,6-diol]
EC50 [1, 5]: 1.5 µM | EC50 [2, 6]: 1.4 µM | EC50 (H69AR lung cancer cells): 1.8 µM | CB1/CB2 (human CB2 receptor): 87.5

COc1cc(C(=O)c2ccccc2)cc(O)c1-c1cc(Cl)cc(Cl)c1 [Compound 29, (3′,5′-dichloro-2-hydroxy-6-methoxybiphenyl-4-yl)(phenyl)methanone]
inhibition at 0.1 µM (NF-κB; A549, 18 h): 50% | EC50 [1, 5]: 2.8 µM | EC50 [2, 6]: 1.5 µM | EC50 ([3]; BXPC-3, 18 h, read-out: BxPC-3 pancreatic EC50 (μM)): 9.3 µM | EC50 [4, 7]: 2.9 µM | Ki (human CB1 receptor): > 1000 nM | EC50 (H69AR lung cancer cells): 1.3 µM | CXCL-8 Reduction (CXCL-8; 100 nM compound): <10% | Ki (human CB2 receptor): 4.77 nM | CB1/CB2 (human CB2 receptor): 209 | IL-6 Reduction (IL-6; 100 nM compound): <5%

Cc1cccc(-c2c(O)cc(C(C)(C)c3ccccc3)cc2O)c1 [Compound 40, 3′-Methyl-4-(1-methyl-1-phenyl-ethyl)-biphenyl-2,6-diol]
CB1/CB2 (human CB2 receptor): 20.30

COc1cc(C(O)c2ccccc2)cc(OC)c1-c1cc(Cl)cc(Cl)c1 (stereo not drawn) [Compound 15]
inhibition at 0.1 µM (NF-κB; 100 nM compound, A549, 10 ng/mL TNF-α, 18 hours): 30% | EC50 ([1]; cell death at 18 hours, WST-8, n.a. = no activity, read-out: DMS-135 lung EC50): 6.2 µM | EC50 ([2]; DU-145, cell death at 18 hours, WST-8, n.a. = no activity, read-out: DU-145 prostate EC50): 18.4 µM | EC50 ([3]; BXPC-3, cell death at 18 hours, WST-8, n.a. = no activity, read-out: BxPC-3 pancreatic EC50): 11.6 µM | EC50 ([4]; HCT-15, cell death at 18 hours, WST-8, n.a. = no activity, read-out: HCT-15 colorectal EC50): 348 µM | Ki (human CB1 receptor): > 1000 nM | Ki (human CB2 receptor): 1.66 nM | CB1/CB2 (human CB2 receptor): 602 | IL-6 Reduction (IL-6; 100 nM compound): 55%

COc1cc(C(C)(C)c2ccccc2)cc(O)c1-c1cc(Cl)cc(Cl)c1 [Compound 47]
EC50 [1, 5]: 0.9 µM | EC50 [2, 6]: 1.4 µM | EC50 [4, 7]: 4.2 µM | EC50 (H69AR lung cancer cells): 12.2 µM

CC(C)(c1ccccc1)c1ccc(-c2cc(Cl)cc(Cl)c2)c(O)c1 [Compound 42, 3′,5′-dichloro-4-(2-phenylpropan-2-yl)biphenyl-2-ol]
CB1/CB2 (human CB2 receptor): 142.1

O=C(c1cc(O)c(-c2cc(Cl)cc(Cl)c2)c(O)c1)c1cccs1 [Compound 31, (3′,5′-dichloro-2,6-dihydroxybiphenyl-4-yl)(thiophen-2-yl)methanone]
inhibition at 0.01 µM (NF-κB; A549, 10 ng/mL TNF-α, 18 hours): 55% | Ki (human CB1 receptor): > 1000 nM | Ki (human CB2 receptor): 1.75 nM | CB1/CB2 (human CB2 receptor): 571 | IL-6 Reduction (IL-6; 10 nM compound): 35%

CC(C)(c1cc(O)c(-c2cc(Cl)cc(Cl)c2)c(O)c1)c1cccs1 [Compound 44, 3′,5′-dichloro-4-(2-(thiophen-2-yl)propan-2-yl)biphenyl-2,6-diol]
CB1/CB2 (human CB2 receptor): 0.41

Cc1cccc(-c2ccc(C(C)(C)c3ccccc3)cc2O)c1 [Compound 39, 3′-methyl-4-(2-phenylpropan-2-yl)biphenyl-2-ol]
CB1/CB2 (human CB2 receptor): 8.87

CC(C)(c1ccc(-c2cc(Cl)cc(Cl)c2)c(O)c1)c1cccs1 [Compound 45, 3′,5′-dichloro-4-(2-(thiophen-2-yl)propan-2-yl)biphenyl-2-ol]
CB1/CB2 (human CB2 receptor): 0.46

COc1cc(C(=O)c2cccs2)cc(O)c1-c1cc(Cl)cc(Cl)c1 [Compound 30, (3′,5′-dichloro-2-hydroxy-6-methoxybiphenyl-4-yl)(thiophen-2-yl)methanone]
inhibition at 1 µM (NF-κB; A549, 18 h): 40% | Ki (human CB1 receptor): 503 nM | Ki (human CB2 receptor): 2.32 nM | CB1/CB2 (human CB2 receptor): 217 | IL-6 Reduction (IL-6; 1 μM compound): 45%

Cc1cccc(-c2c(O)cc(C(C)(C)c3cccs3)cc2O)c1 [Compound 43, 3′-methyl-4-(2-(thiophen-2-yl)propan-2-yl)biphenyl-2,6-diol]
CB1/CB2 (human CB2 receptor): 0.05
